biological target: human adenosine A2b receptor (Homo sapiens (Human), UniProt P29275); test: Cellular in vitro reporter gene test for A2b receptor activity (CHO-K1, CRE-luciferase, NECA stimulation); assay type: cell-based; conditions: recombinant CHO-K1 cell line, CRE-luciferase reporter, antagonism of EC50 concentration of NECA; in some cases means of several determinations, rounded to two significant figures; read-out: A2b receptor IC50
Method in brief: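 CHO-K1 cells with CRE-driven luciferase; antagonists co-incubated with NECA at its EC50, determined in a pre-experiment on each test day. Luciferase read by luminescence 3 h after NECA addition.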

Chain of human adenosine A2b receptor (P29275 whole entry): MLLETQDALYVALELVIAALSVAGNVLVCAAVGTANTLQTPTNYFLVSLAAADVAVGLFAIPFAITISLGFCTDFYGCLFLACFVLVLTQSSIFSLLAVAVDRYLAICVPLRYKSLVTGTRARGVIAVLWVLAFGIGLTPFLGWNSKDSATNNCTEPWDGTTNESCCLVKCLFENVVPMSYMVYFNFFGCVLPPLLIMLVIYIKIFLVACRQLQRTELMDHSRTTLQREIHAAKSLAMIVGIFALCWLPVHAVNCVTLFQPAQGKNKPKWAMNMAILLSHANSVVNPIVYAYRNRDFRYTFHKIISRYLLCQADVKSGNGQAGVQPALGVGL

Row | Compound | IC50
1 | CCn1c(=O)c2c(C)c(Cn3nc[nH]c3=O)sc2n(CCCOC)c1=O [Example 354, 3-Ethyl-1-(3-methoxypropyl)-5-methyl-6-[(5-oxo-4,5-dihydro-1H-1,2,4-triazol-1-yl)methyl]thieno[2,3-d]pyrimidine-2,4(1H,3H)-dione] | 120 nM
2 | CCCn1cnn(Cc2sc3c(c2C)c(=O)n(CC)c(=O)n3CCC(F)(F)F)c1=O [Example 355, 3-Ethyl-5-methyl-6-[(5-oxo-4-propyl-4,5-dihydro-1H-H-1,2,4-triazol-1-yl)methyl]-1-(3,3,3-trifluoropropyl)thieno[2,3-d]pyrimidine-2,4(1H,3H)-dione] | 99 nM
3 | Cc1c(CN2CCNC2=NC#N)sc2c1c(=O)n(CC(F)(F)F)c(=O)n2CCC(F)(F)F [Example 358, [1-{[5-Methyl-2,4-dioxo-3-(2,2,2-trifluoroethyl)-1-(3,3,3-trifluoropropyl)-1,2,3,4-tetrahydrothieno[2,3-d]pyrimidin-6-yl]methyl}imidazolidin-2-ylidene]cyanamide] | 12 nM
4 | Cc1c(CN2CCNC2=NC#N)sc2c1c(=O)n(CC(F)(F)F)c(=O)n2CC1CCO1 (stereo not shown) [Example 359, [1-{[5-Methyl-1-(oxetan-2-ylmethyl)-2,4-dioxo-3-(2,2,2-trifluoroethyl)-1,2,3,4-tetrahydrothieno[2,3-d]pyrimidin-6-yl]methyl}imidazolidin-2-ylidene]cyanamide] | 37 nM
5 | COCCn1c(=O)c2c(C)c(CN3CCNC3=NC#N)sc2n(CCC(F)(F)F)c1=O [Example 362, [1-{[3-(2-Methoxyethyl)-5-methyl-2,4-dioxo-1-(3,3,3-trifluoropropyl)-1,2,3,4-tetrahydrothieno[2,3-d]pyrimidin-6-yl]methyl}imidazolidin-2-ylidene]cyanamide] | 9.4 nM
6 | COCCn1c(=O)c2c(C)c(CN3CCNC3=NC#N)sc2n(CCOC)c1=O [Example 363, [1-{[1,3-Bis(2-methoxyethyl)-5-methyl-2,4-dioxo-1,2,3,4-tetrahydrothieno[2,3-d]pyrimidin-6-yl]methyl}imidazolidin-2-ylidene]cyanamide] | 19 nM
7 | CCn1c(=O)c2c(C)c(CN3CCNC3=NC(=O)OC)sc2n(CCC(F)(F)F)c1=O [Example 370, Methyl [1-{[3-ethyl-5-methyl-2,4-dioxo-1-(3,3,3-trifluoropropyl)-1,2,3,4-tetrahydrothieno[2,3-d]pyrimidin-6-yl]methyl}imidazolidin-2-ylidene]carbamate] | 2 nM
8 | COC(=O)N=C1NCCN1Cc1sc2c(c1C)c(=O)n(C(C)C)c(=O)n2CCC(F)(F)F [Example 377, Methyl [1-{[3-isopropyl-5-methyl-2,4-dioxo-1-(3,3,3-trifluoropropyl)-1,2,3,4-tetrahydrothieno[2,3-d]pyrimidin-6-yl]methyl}imidazolidin-2-ylidene]carbamate] | 3.4 nM
9 | COCCn1c(=O)n(C(C)C)c(=O)c2c(C)c(CN3CCNC3=NC(=O)OC)sc21 [Example 378, Methyl [1-{[3-isopropyl-1-(2-methoxyethyl)-5-methyl-2,4-dioxo-1,2,3,4-tetrahydrothieno[2,3-d]pyrimidin-6-yl]methyl}imidazolidin-2-ylidene]carbamate] | 3.1 nM
10 | COC(=O)N=C1NCCN1Cc1sc2c(c1C)c(=O)n(CC(F)(F)F)c(=O)n2CCC(F)(F)F [Example 381, Methyl [1-{[5-methyl-2,4-dioxo-3-(2,2,2-trifluoroethyl)-1-(3,3,3-trifluoropropyl)-1,2,3,4-tetrahydrothieno[2,3-d]pyrimidin-6-yl]methyl}imidazolidin-2-ylidene]carbamate] | 4.1 nM
11 | COCCn1c(=O)n(CC(F)(F)F)c(=O)c2c(C)c(CN3CCNC3=NC(=O)OC)sc21 [Example 382, Methyl [1-{[1-(2-methoxyethyl)-5-methyl-2,4-dioxo-3-(2,2,2-trifluoroethyl)-1,2,3,4-tetrahydrothieno[2,3-d]pyrimidin-6-yl]methyl}imidazolidin-2-ylidene]carbamate] | 6.8 nM
12 | COCCn1c(=O)c2c(C)c(CN3CCNC3=NC(=O)OC)sc2n(CCC(F)(F)F)c1=O [Example 385, Methyl [1-{[3-(2-methoxyethyl)-5-methyl-2,4-dioxo-1-(3,3,3-trifluoropropyl)-1,2,3,4-tetrahydrothieno[2,3-d]pyrimidin-6-yl]methyl}imidazolidin-2-ylidene]carbamate] | 4.7 nM
13 | COCCn1c(=O)c2c(C)c(CN3CCNC3=NC(=O)OC)sc2n(CCOC)c1=O [Example 386, Methyl [1-{[1,3-bis(2-methoxyethyl)-5-methyl-2,4-dioxo-1,2,3,4-tetrahydrothieno[2,3-d]pyrimidin-6-yl]methyl}imidazolidin-2-ylidene]carbamate] | 16 nM
14 | CCn1c(=O)c2c(C)c(CN3CCNC(=O)C3=O)sc2n(CF)c1=O [Example 393, 6-[(2,3-Dioxopiperazin-1-yl)methyl]-3-ethyl-1-(fluoromethyl)-5-methylthieno[2,3-d]pyrimidine-2,4(1H,3H)-dione] | 45 nM
15 | CCn1c(=O)c2c(C)c(CN3CCNC(=O)C3=O)sc2n(CCC(F)(F)F)c1=O [Example 394, 6-[(2,3-Dioxopiperazin-1-yl)methyl]-3-ethyl-5-methyl-1-(3,3,3-trifluoropropyl)thieno[2,3-d]pyrimidine-2,4(1H,3H)-dione] | 3.2 nM
16 | CCn1c(=O)c2c(C)c(CN3CCNC(=O)C3=O)sc2n(CCOC2CCCC2)c1=O [Example 395, 1-[2-(Cyclopentyloxy)ethyl]-6-[(2,3-dioxopiperazin-1-yl)methyl]-3-ethyl-5-methylthieno[2,3-d]pyrimidine-2,4(1H,3H)-dione] | 94 nM
17 | CCn1c(=O)c2c(C)c(CN3CCNC(=O)C3=O)sc2n(CCCOC)c1=O [Example 396, 6-[(2,3-Dioxopiperazin-1-yl)methyl]-3-ethyl-1-(3-methoxypropyl)-5-methylthieno[2,3-d]pyrimidine-2,4(1H,3H)-dione] | 93 nM
18 | CCOCCn1c(=O)c2c(C)c(CN3CCNC(=O)C3=O)sc2n(CCC(F)(F)F)c1=O [Example 403, 6-[(2,3-Dioxopiperazin-1-yl)methyl]-3-(2-ethoxyethyl)-5-methyl-1-(3,3,3-trifluoropropyl)thieno[2,3-d]pyrimidine-2,4(1H,3H)-dione] | 35 nM
19 | CCOCCn1c(=O)c2c(C)c(CN3CCNC(=O)C3=O)sc2n(CCOC)c1=O [Example 404, 6-[(2,3-Dioxopiperazin-1-yl)methyl]-3-(2-ethoxyethyl)-1-(2-methoxyethyl)-5-methylthieno[2,3-d]pyrimidine-2,4(1H,3H)-dione] | 120 nM
20 | CCOCCn1c(=O)c2c(C)c(CN3CCNC3=S)sc2n(CCCF)c1=O [Example 405, 3-(2-Ethoxyethyl)-1-(3-fluoropropyl)-5-methyl-6-[(2-thioxoimidazolidin-1-yl)methyl]thieno[2,3-d]pyrimidine-2,4(1H,3H)-dione] | 30 nM
21 | Cc1c(CN2CCNC2=O)sc2c1c(=O)n(C(C)C(F)(F)F)c(=O)n2CCC(F)(F)F (stereo not shown) [Example 409, 5-Methyl-6-[(2-oxoimidazolidin-1-yl)methyl]-3-(t1,1,1-trifluoropropan-2-yl)-1-(3,3,3-trifluoropropyl)thieno[2,3-d]pyrimidine-2,4(1H,3H)-dione] | 14 nM
22 | CCOCCn1c(=O)c2c(C)c(CN3CCNC3=O)sc2n(CCCF)c1=O [Example 411, 3-(2-Ethoxyethyl)-1-(3-fluoropropyl)-5-methyl-6-[(2-oxoimidazolidin-1-yl)methyl]thieno[2,3-d]pyrimidine-2,4(1H,3H)-dione] | 53 nM

From patent US10428083B2, “Heterocyclylmethyl-thienouracile as antagonists of the adenosine-A2B-receptor” (BAYER PHARMA AKTIENGESELLSCHAFT, priority 2015, dated 2019)
